The results in this text go back to paper PMC5564600 (Oncotarget, 2017).

Common to all, as to assay: biochemical
Holding throughout (format): binding

In assay [1] the target is T1, panel of 442 kinases (Homo sapiens, UniProt Q8TD08).
T1 construct: purchased Ambit Biosciences (scanMAXX KINOMEscan)
T1 sequence (Q8TD08 1-544): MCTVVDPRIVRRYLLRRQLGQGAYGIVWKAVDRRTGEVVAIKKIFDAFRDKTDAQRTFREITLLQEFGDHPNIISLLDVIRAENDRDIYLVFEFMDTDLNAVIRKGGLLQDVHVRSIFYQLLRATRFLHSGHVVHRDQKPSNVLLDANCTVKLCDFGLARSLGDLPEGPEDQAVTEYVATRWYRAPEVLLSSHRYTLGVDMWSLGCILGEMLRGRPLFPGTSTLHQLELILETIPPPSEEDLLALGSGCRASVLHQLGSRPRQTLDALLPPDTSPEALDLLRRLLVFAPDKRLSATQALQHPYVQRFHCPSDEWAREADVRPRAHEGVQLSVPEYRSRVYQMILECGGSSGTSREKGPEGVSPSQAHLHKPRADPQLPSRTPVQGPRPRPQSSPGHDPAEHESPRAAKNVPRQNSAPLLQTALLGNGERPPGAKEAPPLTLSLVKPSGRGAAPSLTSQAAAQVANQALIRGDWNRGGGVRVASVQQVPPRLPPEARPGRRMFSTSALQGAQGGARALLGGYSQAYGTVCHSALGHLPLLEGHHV
The conditions noted are these: ERK8; for remaining activity at 1 µM: read-out: % of control at 1 µM.

For assay [2], the target named is T2, panel of 442 kinases (Homo sapiens, UniProt P78356).
T2 construct: purchased Ambit Biosciences (scanMAXX KINOMEscan)
T2 sequence (P78356 1-416): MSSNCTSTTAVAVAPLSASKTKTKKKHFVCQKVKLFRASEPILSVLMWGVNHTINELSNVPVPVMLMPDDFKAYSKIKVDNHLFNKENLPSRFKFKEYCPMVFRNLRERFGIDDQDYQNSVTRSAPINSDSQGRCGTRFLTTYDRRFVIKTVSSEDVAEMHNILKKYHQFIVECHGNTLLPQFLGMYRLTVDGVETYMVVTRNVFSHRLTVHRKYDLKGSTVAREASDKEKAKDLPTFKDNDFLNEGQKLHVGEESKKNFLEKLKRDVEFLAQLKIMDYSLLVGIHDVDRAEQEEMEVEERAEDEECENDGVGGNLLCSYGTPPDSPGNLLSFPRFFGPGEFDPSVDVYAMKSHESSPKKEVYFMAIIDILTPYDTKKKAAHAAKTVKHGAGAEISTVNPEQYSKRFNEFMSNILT
The conditions noted are these: kinase PIP5K2B; for remaining activity at 1 µM: read-out: % of control at 1 µM.

Assay [3] addresses T3, panel of 442 kinases (Homo sapiens, UniProt P51957).
T3 construct: purchased Ambit Biosciences (scanMAXX KINOMEscan)
The conditions noted are these: kinase NEK4; for remaining activity at 1 µM: read-out: % of control at 1 µM.

For assay [4], the target named is T4, panel of 442 kinases (Homo sapiens, UniProt Q16816).
T4 construct: purchased Ambit Biosciences (scanMAXX KINOMEscan)
The conditions noted are these: kinase PHKG1; for remaining activity at 1 µM: read-out: % of control at 1 µM.

Assay [5] has as its target T5, panel of 442 kinases (Homo sapiens, UniProt Q13976).
T5 construct: purchased Ambit Biosciences (scanMAXX KINOMEscan)
T5 sequence (Q13976 1-671): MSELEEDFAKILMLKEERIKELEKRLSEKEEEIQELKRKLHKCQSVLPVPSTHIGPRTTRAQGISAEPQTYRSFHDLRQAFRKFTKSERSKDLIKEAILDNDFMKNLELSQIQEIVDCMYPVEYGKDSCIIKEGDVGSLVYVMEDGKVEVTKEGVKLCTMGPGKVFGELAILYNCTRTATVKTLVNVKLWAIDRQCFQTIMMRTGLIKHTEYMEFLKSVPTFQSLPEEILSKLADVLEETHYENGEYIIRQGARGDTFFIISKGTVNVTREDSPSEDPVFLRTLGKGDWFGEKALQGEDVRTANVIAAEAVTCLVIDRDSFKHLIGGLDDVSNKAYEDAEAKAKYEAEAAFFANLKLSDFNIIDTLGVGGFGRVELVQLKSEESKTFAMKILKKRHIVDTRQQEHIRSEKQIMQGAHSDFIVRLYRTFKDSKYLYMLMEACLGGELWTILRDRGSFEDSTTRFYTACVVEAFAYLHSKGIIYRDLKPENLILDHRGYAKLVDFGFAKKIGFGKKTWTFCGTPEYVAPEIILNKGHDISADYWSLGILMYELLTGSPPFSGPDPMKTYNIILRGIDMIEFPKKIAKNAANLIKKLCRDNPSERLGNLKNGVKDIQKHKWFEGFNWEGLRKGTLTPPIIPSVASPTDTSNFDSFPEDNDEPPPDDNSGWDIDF
The conditions noted are these: kinase PRKG1; for remaining activity at 1 µM: read-out: PRKG1 (% of control at 1 µM).

The target in assay [6] is T6, panel of 442 kinases (Homo sapiens, UniProt O60285).
T6 construct: purchased Ambit Biosciences (scanMAXX KINOMEscan)
T6 sequence (O60285 1-661): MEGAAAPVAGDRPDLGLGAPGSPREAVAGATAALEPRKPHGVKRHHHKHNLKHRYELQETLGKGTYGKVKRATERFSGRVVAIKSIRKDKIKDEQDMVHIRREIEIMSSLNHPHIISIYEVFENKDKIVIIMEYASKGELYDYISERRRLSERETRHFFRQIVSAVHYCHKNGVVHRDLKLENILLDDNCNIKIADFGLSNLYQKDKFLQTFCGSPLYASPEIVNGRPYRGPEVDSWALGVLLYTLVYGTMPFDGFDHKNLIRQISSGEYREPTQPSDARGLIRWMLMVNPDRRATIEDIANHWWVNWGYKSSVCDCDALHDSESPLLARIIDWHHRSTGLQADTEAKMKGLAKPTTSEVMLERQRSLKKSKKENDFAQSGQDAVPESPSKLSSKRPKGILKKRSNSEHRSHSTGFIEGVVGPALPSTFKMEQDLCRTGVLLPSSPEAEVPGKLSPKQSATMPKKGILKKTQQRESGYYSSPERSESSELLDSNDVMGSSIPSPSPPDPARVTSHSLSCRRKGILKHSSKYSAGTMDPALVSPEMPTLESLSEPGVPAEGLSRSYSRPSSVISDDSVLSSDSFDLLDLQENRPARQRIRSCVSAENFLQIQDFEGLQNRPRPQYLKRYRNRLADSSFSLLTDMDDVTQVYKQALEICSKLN
The conditions noted are these: ARK5; for remaining activity at 1 µM: read-out: % of control at 1 µM.

[7] abbreviates: 10 µM, read-out: % of control at 10 µM.

T4 sequence (Q16816 whole entry): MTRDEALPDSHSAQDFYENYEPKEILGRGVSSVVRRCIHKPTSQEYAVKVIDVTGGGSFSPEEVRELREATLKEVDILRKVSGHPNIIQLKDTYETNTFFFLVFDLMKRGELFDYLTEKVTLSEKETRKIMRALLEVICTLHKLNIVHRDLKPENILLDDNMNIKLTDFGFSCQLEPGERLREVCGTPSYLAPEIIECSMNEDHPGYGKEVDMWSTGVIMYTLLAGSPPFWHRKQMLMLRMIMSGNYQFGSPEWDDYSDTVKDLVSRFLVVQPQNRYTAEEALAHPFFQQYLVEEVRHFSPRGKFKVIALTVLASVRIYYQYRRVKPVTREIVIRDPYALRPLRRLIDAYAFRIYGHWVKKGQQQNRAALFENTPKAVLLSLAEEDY
T3 sequence (P51957 whole entry): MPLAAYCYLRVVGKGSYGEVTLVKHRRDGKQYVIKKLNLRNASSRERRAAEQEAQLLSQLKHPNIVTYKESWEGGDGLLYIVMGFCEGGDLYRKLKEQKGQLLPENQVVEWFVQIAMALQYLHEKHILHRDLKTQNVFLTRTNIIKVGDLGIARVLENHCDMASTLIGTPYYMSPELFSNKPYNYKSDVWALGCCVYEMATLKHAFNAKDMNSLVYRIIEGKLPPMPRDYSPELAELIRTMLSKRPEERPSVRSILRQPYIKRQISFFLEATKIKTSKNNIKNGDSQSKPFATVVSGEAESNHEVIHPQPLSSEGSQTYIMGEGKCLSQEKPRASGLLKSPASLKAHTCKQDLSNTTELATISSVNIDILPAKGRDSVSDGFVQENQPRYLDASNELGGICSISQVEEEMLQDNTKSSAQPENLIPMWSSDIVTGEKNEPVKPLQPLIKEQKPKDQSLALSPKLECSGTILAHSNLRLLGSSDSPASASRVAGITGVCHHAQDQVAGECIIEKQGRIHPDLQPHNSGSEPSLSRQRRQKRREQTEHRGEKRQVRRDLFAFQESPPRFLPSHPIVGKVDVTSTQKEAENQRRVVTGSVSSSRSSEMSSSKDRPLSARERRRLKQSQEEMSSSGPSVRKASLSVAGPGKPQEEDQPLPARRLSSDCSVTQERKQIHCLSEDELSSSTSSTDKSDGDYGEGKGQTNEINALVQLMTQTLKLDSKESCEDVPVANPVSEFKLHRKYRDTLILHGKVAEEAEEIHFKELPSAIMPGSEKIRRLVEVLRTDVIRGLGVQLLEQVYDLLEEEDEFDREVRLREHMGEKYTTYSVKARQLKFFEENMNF

Turning to `Nc1cc(C(F)(F)F)c(-c2cc(N3CCOCC3)nc(N3CCOCC3)n2)cn1` [Buparlisib], the remaining activity at 1 µM on panel of 442 kinases [1] amounted to 100%; on panel of 442 kinases [2], 84%; on panel of 442 kinases [3], 77%; at panel of 442 kinases [4], 99%; on panel of 442 kinases [5], 77%; at panel of 442 kinases [6] it was 100%. Also, the remaining activity at 10 µM at panel of 442 kinases [1] (setting [7]) is 100%; on panel of 442 kinases [2] (setting [7]) it was 100%; at panel of 442 kinases [3] (setting [7]), 99%; on panel of 442 kinases [4] (setting [7]), 100%; on panel of 442 kinases [5] (10 µM, read-out: PRKG1 (% of control at 10 µM)) it was 100%; at panel of 442 kinases [6] (setting [7]), 100%.

Take `Cn1c(=O)n(-c2ccc(C(C)(C)C#N)cc2)c2c3cc(-c4cnc5ccccc5c4)ccc3ncc21` [Dactolisib, 2-methyl-2-[4-(3-methyl-2-oxo-8-quinolin-3-yl-2,3-dihydroimidazo[4,5-c]quinolin-1-yl)-phenyl] propionitrile]: the remaining activity at 1 µM is 86% on panel of 442 kinases [1]; 100% at panel of 442 kinases [2]; 88% at panel of 442 kinases [3]; 100% at panel of 442 kinases [4]; 95% at panel of 442 kinases [5]; 32% on panel of 442 kinases [6].

Take `COc1ncc(-c2ccc3nccc(-c4ccnnc4)c3c2)cc1NS(=O)(=O)c1ccc(F)cc1F` [Omipalisib]: the remaining activity at 1 µM at panel of 442 kinases [1] was found to be 100%; at panel of 442 kinases [2], 100%; on panel of 442 kinases [3], 100%; on panel of 442 kinases [4], 86%; at panel of 442 kinases [5], 100%; at panel of 442 kinases [6], 100%.

Take `FC(F)c1nc2ccccc2n1-c1nc(N2CCOCC2)nc(N2CCOCC2)n1` [ZSTK474, 2-(difluoromethyl)-1-[4,6-di(4-morpholinyl)-1,3,5-triazin-2-yl]-1H-benzimidazole]: the remaining activity at 1 µM at panel of 442 kinases [1], at panel of 442 kinases [2], at panel of 442 kinases [3], on panel of 442 kinases [4], on panel of 442 kinases [5] and at panel of 442 kinases [6] was 100% each time.
